Measurements published in patent publication US7014839B2, “Light imaging contrast agents” (Amersham Health AS, priority 1995, dated 2006).
Marks after values point to notes of the source that are not given here. Values belong to the molecule of their own block, whether it stands above or below them.

Columns and labels:
[1] = Percent of incident light transmitted by diluted nanoparticle suspension and by methanol-dissolved agent; assay type: physicochemical; conditions: for % T suspension 632 nm / % T suspension 700 nm / % T suspension 820 nm / % T suspension 800 nm: nanoparticle suspension
From the text: The results are given below.

[2] = Absorbance vs wavelength of dissolved and nanoparticle agent; assay type: physicochemical; conditions: above 600 nm; for Absorbance vs wavelength of dissolved agent: dissolved (methanol); for Absorbance vs wavelength of nanoparticle agent: particulate suspension
[3] = Average particle size of milled nanoparticle suspensions (light scattering); conditions: for average particle size: light scattering
Method: WIN 70146 (an iodinated X-ray contrast agent prepared according to Example 23 below) was added to each of 3×1.5 oz brown glass bottles containing approximately 12 ml of zirconium silicate, 1.1 mm diameter beads in an amount sufficient to be 15% (wt/vol %) of the final suspension. Bottle A was also made 3% (wt/vol %) Pluronic F-68 while bottle B was made 3% (wt/vol %)) Pluronic F-108 and bottle C was made 3% (wt/vol %) Tetronic T-908. The resulting suspensions were milled at approx 150 rpm for a total of 9 days with estimates of particle size determined at various intervals as detailed below.
WIN 70146 was milled with 1.1 mm diameter zirconium silicate beads for 3 days under aseptic conditions. The concentration of this agent was 15% WIN 70146 in the presence of 4% Pluronic F-108. No additional salts or surfactants were added.
WIN 70146 was milled with 1.1 mm diameter zirconium silicate beads in the presence of Pluronic F-108 for 3 days. […] At this point, sterile PEG 400 was added to the suspension such that at completion, the formulation contained 15% (wt/vol %) WIN 70146, 3% (wt/vol %) Pluronic F-108 and 10% PEG 400.
(§1) This suspension was then diluted in water to various levels listed below. The percent of incident light transmitted was then determined for each suspension at several wavelengths (see below). The suspensions were then dissolved by addition of methanol and examined for percent transmitted light against an equivalent solvent blank.
A formulation of WIN 70177 (an iodinated X-ray contrast agent prepared according to Example 24) was prepared as 15 gm of WIN 70177/100 ml of suspension and 4.25-gm of Pluronic F108/100 ml of suspension and 10 gm of PEG 400/100 ml of suspension.
A formulation of WIN 67722 (an iodinated X-ray contrast agent as described in U.S. Pat. No. 5,322,679) was prepared as in Example 1 using 3% Pluronic F108 and 15% PEG 1450.
as §1

mice = system: mice
Method: WIN 70146 was prepared as in Example 10 and injected into the tail vein of mice at doses of 3 ml/kg, 15 ml/kg, and 30 ml/kg (ie. 0.45 gm/kg, 2.25 gm/kg and 4.5 gm/kg).

[4] = Stability testing in fresh rat plasma; assay type: physicochemical; conditions: nanoparticle suspension, F108/PEG 400
Method: (§2) A formulation of WIN 70177 (an iodinated X-ray contrast agent prepared according to Example 24) was prepared as 15 gm of WIN 70177/100 ml of suspension and 4.25-gm of Pluronic F108/100 ml of suspension and 10 gm of PEG 400/100 ml of suspension. The suspension was milled for 5 days after which the average particle size was determined by light scattering to be about 235 nm.

[5] = Stability testing in simulated gastric fluid; assay type: physicochemical; conditions: nanoparticle suspension, F108/PEG 400
Method: as §2

[6] = Residence within the vasculature after injection; assay type: in vivo; conditions: nanoparticles
Method: WIN 72115 was designed to be excited with incident radiation from an Argon Ion laser (in the green, near 514 nm) and emit light at wavelengths above that value. Thus, after injection, illumination of the patient with green light would stimulate emission of light of a slightly different wavelength that could be used for diagnostic purposes. The key features of this agent are that it can be prepared as nanoparticles, remain within the vasculature for greater than 15 minutes, provide both scattering and fluorescence contrast for light imaging. In place of WIN 72115, the photolabelled agent of Example 22 below may be used.

[7] = methanol added, 0.150%, not fully dissolved
[8] = methanol added, 0.300%, not fully dissolved
[9] = 3% Pluronic F108, 15% PEG 1450, milled 3 days, Coulter N4MD

Compound: CCOC(=O)CCCCCOC(=O)c1c(I)c(NC(C)=O)c(I)c(NC(C)=O)c1I [WIN 67722]
% T solution 632 nm ([1]; dissolved by methanol, 0.015%): 99.9%
% T solution 700 nm ([1]; dissolved by methanol, 0.015%): 99.9%
% T solution 820 nm ([1]; dissolved by methanol, 0.015%): 100.6%
% T solution 632 nm ([1]; dissolved by methanol, 0.0375%): 100.2%
% T solution 700 nm ([1]; dissolved by methanol, 0.0375%): 100.2%
% T solution 820 nm ([1]; dissolved by methanol, 0.0375%): 100.4%
% T solution 632 nm ([1]; dissolved by methanol, 0.075%): 100.1%
% T solution 700 nm ([1]; dissolved by methanol, 0.075%): 100.2%
% T solution 820 nm ([1]; dissolved by methanol, 0.075%): 100.4%
% T solution 632 nm [1, 7]: 48.2* %
% T solution 700 nm [1, 7]: 55.3* %
% T solution 820 nm [1, 7]: 65.5* %
% T solution 632 nm [1, 8]: 1.3* %
% T solution 700 nm [1, 8]: 3.5* %
% T solution 820 nm [1, 8]: 10.7* %
% T suspension 632 nm ([1]; 0.015%): 47.9%
% T suspension 700 nm ([1]; 0.015%): 57.1%
% T suspension 820 nm ([1]; 0.015%): 69.2%
% T suspension 632 nm ([1]; 0.0375%): 20.5%
% T suspension 700 nm ([1]; 0.0375%): 29.9%
% T suspension 820 nm ([1]; 0.0375%): 45.6%
% T suspension 632 nm ([1]; 0.075%): 4.8%
% T suspension 700 nm ([1]; 0.075%): 9.9%
% T suspension 820 nm ([1]; 0.075%): 22.1%
% T suspension 632 nm ([1]; 0.150%): 0.2%
% T suspension 700 nm ([1]; 0.150%): 1.0%
% T suspension 820 nm ([1]; 0.150%): 4.9%
% T suspension 632 nm ([1]; 0.300%): 0.0%
% T suspension 700 nm ([1]; 0.300%): 0.0%
% T suspension 820 nm ([1]; 0.300%): 0.2%
Absorbance vs wavelength of dissolved agent [2]: has virtually no absorbance at all even at 5 times the concentration
Absorbance vs wavelength of nanoparticle agent [2]: provides an exponential drop in absorbance with wavelength
average diameter after autoclaving ([3]; 3% Pluronic F108, 15% PEG 1450): 214 nm
particle size [3, 9]: 213 nm
particle size, small fraction [3, 9]: 537 nm

Compound: CCCCC(OC(=O)c1c(I)c(NC(C)=O)c(I)c(NC(C)=O)c1I)C(=O)OCC (centres unmarked) [WIN 70146, Benzoic Acid, 3,5-bis(acetylamino)-2,4,6-triiodo-1-(ethoxycarbonyl)pentyl ester]
% T solution 632 nm ([1]; dissolved by methanol, 0.015%): 100.4%
% T solution 700 nm ([1]; dissolved by methanol, 0.015%): 100.3%
% T solution 820 nm ([1]; dissolved by methanol, 0.015%): 100.5%
% T solution 632 nm ([1]; dissolved by methanol, 0.0375%): 99.9%
% T solution 700 nm ([1]; dissolved by methanol, 0.0375%): 99.9%
% T solution 820 nm ([1]; dissolved by methanol, 0.0375%): 99.9%
% T solution 632 nm ([1]; dissolved by methanol, 0.075%): 99.9%
% T solution 700 nm ([1]; dissolved by methanol, 0.075%): 99.8%
% T solution 820 nm ([1]; dissolved by methanol, 0.075%): 99.9%
% T solution 632 nm [1, 7]: 41.4* %
% T solution 700 nm [1, 7]: 51.9* %
% T solution 820 nm [1, 7]: 66.2* %
% T solution 632 nm [1, 8]: 1.2* %
% T solution 700 nm [1, 8]: 4.0* %
% T solution 820 nm [1, 8]: 13.5* %
% T suspension 632 nm ([1]; 0.015%): 54.7%
% T suspension 700 nm ([1]; 0.015%): 64.5%
% T suspension 820 nm ([1]; 0.015%): 77.0%
% T suspension 632 nm ([1]; 0.0375%): 25.4%
% T suspension 700 nm ([1]; 0.0375%): 36.6%
% T suspension 820 nm ([1]; 0.0375%): 53.8%
% T suspension 632 nm ([1]; 0.075%): 7.7%
% T suspension 700 nm ([1]; 0.075%): 15.4%
% T suspension 820 nm ([1]; 0.075%): 31.8%
% T suspension 632 nm ([1]; 0.150%): 0.5%
% T suspension 700 nm ([1]; 0.150%): 1.9%
% T suspension 820 nm ([1]; 0.150%): 8.6%
% T suspension 632 nm ([1]; 0.300%): 0.0%
% T suspension 700 nm ([1]; 0.300%): 0.1%
% T suspension 820 nm ([1]; 0.300%): 0.8%
Absorbance vs wavelength of dissolved agent [2]: does not show any evidence of light absorbance from 600 to 800 nm
Absorbance vs wavelength of nanoparticle agent [2]: shows a classic absorbance decay due to scattering of the incident light
average diameter after autoclaving ([3]; 4.25% F108/10% PEG 400): 228 nm
average particle size ([3]; 15% WIN 70146, 4% Pluronic F-108, milled 3 days): 162 nm
final particle size after autoclaving ([3]; 15% agent, 3% Pluronic F-108, 10% PEG 400, 121 degrees C. for 20 min): 248 nm
final particle size after milling ([3]; Pluronic F-108, milled 3 days, before PEG 400 and autoclaving): 235 nm
Stability to heat and shelf time of nanoparticle suspension ([3]; in F108 and T908, autoclaving, time on the shelf): excellent stability to heat (autoclaving) and time on the shelf
Untoward effects (mice; tail vein, 3, 15 and 30 ml/kg (0.45, 2.25, 4.5 gm/kg), 7 days): No untoward effects were noted
Gross observation after sacrifice (mice; tail vein, 3-30 ml/kg, after 7 days): did not reveal any obvious lesions or disfigurations

Compound: CC(=O)Nc1c(I)c(NC(C)=O)c(I)c(C(=O)OCC(C(=O)OC(C)C)C(=O)OC(C)C)c1I [WIN 70177, Propanedioic Acid, [[3,5-bis(acetylamino)-2,4,6-triiodobenzoyl]oxy]methyl-bis(1-methylethyl)ester]
% T solution 632 nm ([1]; dissolved by methanol, 0.015%): 102.2%
% T solution 700 nm ([1]; dissolved by methanol, 0.015%): 101.9%
% T solution 800 nm ([1]; dissolved by methanol, 0.015%): 101.8%
% T solution 632 nm ([1]; dissolved by methanol, 0.0375%): 102.3%
% T solution 700 nm ([1]; dissolved by methanol, 0.0375%): 101.9%
% T solution 800 nm ([1]; dissolved by methanol, 0.0375%): 101.8%
% T solution 632 nm ([1]; dissolved by methanol, 0.075%): 100.9%
% T solution 700 nm ([1]; dissolved by methanol, 0.075%): 100.8%
% T solution 800 nm ([1]; dissolved by methanol, 0.075%): 101.0%
% T solution 632 nm [1, 7]: 59.5* %
% T solution 700 nm [1, 7]: 67.8* %
% T solution 800 nm [1, 7]: 77.0* %
% T solution 632 nm [1, 8]: 7.4* %
% T solution 700 nm [1, 8]: 14.4* %
% T solution 800 nm [1, 8]: 26.8* %
% T suspension 632 nm ([1]; 0.015%): 53.3%
% T suspension 700 nm ([1]; 0.015%): 62.8%
% T suspension 800 nm ([1]; 0.015%): 73.1%
% T suspension 632 nm ([1]; 0.0375%): 34.6%
% T suspension 700 nm ([1]; 0.0375%): 45.7%
% T suspension 800 nm ([1]; 0.0375%): 59.1%
% T suspension 632 nm ([1]; 0.075%): 25.8%
% T suspension 700 nm ([1]; 0.075%): 36.8%
% T suspension 800 nm ([1]; 0.075%): 51.1%
% T suspension 632 nm ([1]; 0.150%): 6.7%
% T suspension 700 nm ([1]; 0.150%): 13.6%
% T suspension 800 nm ([1]; 0.150%): 26.3%
% T suspension 632 nm ([1]; 0.300%): 0.1%
% T suspension 700 nm ([1]; 0.300%): 0.6%
% T suspension 800 nm ([1]; 0.300%): 3.2%
Aggregation in fresh rat plasma [4]: did not show any aggregation
Absorbance vs wavelength of dissolved agent [2]: has virtually no absorbance at all even at 5 times the concentration
Absorbance vs wavelength of nanoparticle agent [2]: provides an exponential drop in absorbance with wavelength
Aggregation in simulated gastric fluid [5]: did not show any aggregation
average diameter after autoclaving ([3]; 4.25% F108/10% PEG 400): 236 nm
average particle size ([3]; 15 gm agent, 4.25 gm Pluronic F108, 10 gm PEG 400 per 100 ml, milled 5 days): about 235 nm

Time remaining within the vasculature [6]: greater than 15 minutes
melting point: 238 to 240 °C
average particle size ([3]; 15 gm agent and 3 gm Pluronic F108 per 100 ml): 225 nm
Compound: CCOC(=O)c1c(I)c(NS(=O)(=O)c2cccc3c(N(C)C)cccc23)c(I)c(N(CC)C(C)=O)c1I [WIN 72115, 3-(N-Acetyl-N-ethylamino)-5-[(5-dimethylamino-1-naphthylsulfonyl)amino]-2,4,6-triiodobenzoic Acid Ethyl Ester]
